# From PMC10925993, “6-Aryl-4-cycloamino-1,3,5-triazine-2-amines: synthesis, antileukemic activity, and 3D-QSAR modelling” (RSC Advances, 2024)
# Tests used:
# Jurkat T cells = assay: Antiproliferative screening at 10 μM, MTS assay; assay type: cell-based, human; conditions: Homo sapiens; Jurkat T cells, 10 μM, 72 h after treatment, MTS; mean of three independent experiments; read-out: Cell viability (%)
# Experimental: The Jurkat T cell line was chosen for its reliability as a model for chemotherapeutic studies, particularly in T-cell leukemia.[13]
# An MTS (3-(4,5-dimethylthiazol-2-yl)-5-(3-carboxymethoxyphenyl)-2-(4-sulfophenyl)-2H-tetrazolium inner salt) assay[20] was used to assess the leukemic cell viability. […] A total of 2 × 10^3 cells per 100 μL cell culture media were seeded into each well of a 96-well plate and incubated for 24 h. Then, tested compounds or reference drugs [6-mercaptopurine (Merck Millipore, Germany), methotrexate (Merck Millipore, Germany) and cytarabine (Merck Millipore, Germany)] were added, followed by incubation for 72 h. […] The absorbance in each well was measured at 490 nm using a microplate reader (Tecan NanoQuant Infinite M200 Pro, Austria). The percentage of cell viability was estimated by comparing absorbance in wells with the treated and untreated (vehicle control) cells using the following formula: ODtreated/ODuntreated × 100%. All experiments were performed in triplicate and repeated in three independent experiments. The GI50 values were calculated using sigmoidal concentration-response curves generated by the GraphPad Prism 8 program.[21]
SMILES,viability at 10 µM (Jurkat T cells) [%],melting point [°C]
"CC1CCN(c2nc(N)nc(-c3ccc(Cl)cc3)n2)CC1 [9{3,4}, 6-(4-Chlorophenyl)-4-(4-methylpiperidino)-1,3,5-triazine-2-amine]",79,168 to 169
"Cc1ccc(-c2nc(N)nc(N3CCC(C)CC3)n2)cc1 [9{3,6}, 6-(4-Methylphenyl)-4-(4-methylpiperidino)-1,3,5-triazine-2-amine]",100,> 300
"CC1CCN(c2nc(N)nc(-c3ccc(N(C)C)cc3)n2)CC1 [9{3,8}, 6-[4-(N,N-Dimethylamino)phenyl]-4-(4-methylpiperidino)-1,3,5-triazine-2-amine]",84,212 to 213
"COc1ccc(-c2nc(N)nc(N3CCC(C)CC3)n2)cc1 [9{3,9}, 6-(4-Methoxyphenyl)-4-(4-methylpiperidino)-1,3,5-triazine-2-amine]",100,172 to 173
"CC1CCN(c2nc(N)nc(-c3cccc([N+](=O)[O-])c3)n2)CC1 [9{3,10}, 4-(4-Methylpiperidino)-6-(3-nitrophenyl)-1,3,5-triazine-2-amine]",84,153 to 154
"CN1CCN(c2nc(N)nc(-c3cccc(F)c3)n2)CC1 [9{4,2}, 6-(3-Fluorophenyl)-4-(4-methylpiperazino)-1,3,5-triazine-2-amine]",95,187 to 188
"CN1CCN(c2nc(N)nc(-c3ccc(F)cc3)n2)CC1 [9{4,3}, 6-(4-Fluorophenyl)-4-(4-methylpiperazino)-1,3,5-triazine-2-amine]",100,192 to 193
"Cc1cccc(-c2nc(N)nc(N3CCN(C)CC3)n2)c1 [9{4,5}, 6-(3-Methylphenyl)-4-(4-methylpiperazino)-1,3,5-triazine-2-amine]",95,194 to 195
"Cc1ccc(-c2nc(N)nc(N3CCN(C)CC3)n2)cc1 [9{4,6}, 6-(4-Methylphenyl)-4-(4-methylpiperazino)-1,3,5-triazine-2-amine]",100,220 to 221
"CN1CCN(c2nc(N)nc(-c3ccc(N(C)C)cc3)n2)CC1 [9{4,8}, 6-[4-(N,N-Dimethylamino)phenyl]-4-(4-methylpiperazino)-1,3,5-triazine-2-amine]",99,244 to 245
"COc1ccc(-c2nc(N)nc(N3CCN(C)CC3)n2)cc1 [9{4,9}, 6-(4-Methoxyphenyl)-4-(4-methylpiperazino)-1,3,5-triazine-2-amine]",100,196 to 197
"CN1CCN(c2nc(N)nc(-c3cccc([N+](=O)[O-])c3)n2)CC1 [9{4,10}, 4-(4-Methylpiperazino)-6-(3-nitrophenyl)-1,3,5-triazine-2-amine]",100,226 to 227
"CN1CCN(c2nc(N)nc(-c3ccc(C(F)(F)F)cc3)n2)CC1 [9{4,11}, 6-[4-(Trifluoromethyl)phenyl]-4-(4-methylpiperazino)-1,3,5-triazine-2-amine]",100,194 to 195
"CN1CCN(c2nc(N)nc(-c3ccc(OC(F)(F)F)cc3)n2)CC1 [9{4,12}, 6-[4-(Trifluoromethoxy)phenyl]-4-(4-methylpiperazino)-1,3,5-triazine-2-amine]",100,194 to 195
"CN1CCN(c2nc(N)nc(-c3cccc(OCc4ccccc4)c3)n2)CC1 [9{4,14}, 6-[3-(Benzyloxy)phenyl]-4-(4-methylpiperazino)-1,3,5-triazine-2-amine]",73,117 to 118
"CN1CCN(c2nc(N)nc(-c3ccc(OCc4ccccc4)cc3)n2)CC1 [9{4,15}, 6-[4-(Benzyloxy)phenyl]-4-(4-methylpiperazino)-1,3,5-triazine-2-amine]",74,191 to 192
